This test addresses T1, BRM (Homo sapiens, UniProt P51531).
T1 construct: In-Cell Western Screen of BRM Degradation in SW1573 Cells; endogenous in cells; host or cells: SW1573
Put plainly: In-cell Western screen of BRM degradation in SW1573 cells (Dmax and DC50). It counts as cell-based. The settings on record: BRM degradation. The essentials:
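BRM levels were read by LI-COR in-cell Western after two-channel (800/680 nm) immunostaining of fixed, Triton-permeabilised SW1573 cells.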

Setting [1] is: SW1573 cells, tested at the top concentration of between 0.3 and 10 μM, read-out: Dmax (%) (% degraded).
The mark [2] stands for this setting: SW1573 cells, when tested at the top concentration of between 0.3 and 10 μM, read-out: Dmax (%) (% degraded).

Structures are written as SMILES. Like-named read-outs stand apart in the source and are kept apart here. A value given as a limit tells only on which side of the number the result lay.

The DC50 is the midpoint of the concentration-degradation curve. The Dmax is the greatest extent of degradation seen.

T1 sequence (P51531 whole entry): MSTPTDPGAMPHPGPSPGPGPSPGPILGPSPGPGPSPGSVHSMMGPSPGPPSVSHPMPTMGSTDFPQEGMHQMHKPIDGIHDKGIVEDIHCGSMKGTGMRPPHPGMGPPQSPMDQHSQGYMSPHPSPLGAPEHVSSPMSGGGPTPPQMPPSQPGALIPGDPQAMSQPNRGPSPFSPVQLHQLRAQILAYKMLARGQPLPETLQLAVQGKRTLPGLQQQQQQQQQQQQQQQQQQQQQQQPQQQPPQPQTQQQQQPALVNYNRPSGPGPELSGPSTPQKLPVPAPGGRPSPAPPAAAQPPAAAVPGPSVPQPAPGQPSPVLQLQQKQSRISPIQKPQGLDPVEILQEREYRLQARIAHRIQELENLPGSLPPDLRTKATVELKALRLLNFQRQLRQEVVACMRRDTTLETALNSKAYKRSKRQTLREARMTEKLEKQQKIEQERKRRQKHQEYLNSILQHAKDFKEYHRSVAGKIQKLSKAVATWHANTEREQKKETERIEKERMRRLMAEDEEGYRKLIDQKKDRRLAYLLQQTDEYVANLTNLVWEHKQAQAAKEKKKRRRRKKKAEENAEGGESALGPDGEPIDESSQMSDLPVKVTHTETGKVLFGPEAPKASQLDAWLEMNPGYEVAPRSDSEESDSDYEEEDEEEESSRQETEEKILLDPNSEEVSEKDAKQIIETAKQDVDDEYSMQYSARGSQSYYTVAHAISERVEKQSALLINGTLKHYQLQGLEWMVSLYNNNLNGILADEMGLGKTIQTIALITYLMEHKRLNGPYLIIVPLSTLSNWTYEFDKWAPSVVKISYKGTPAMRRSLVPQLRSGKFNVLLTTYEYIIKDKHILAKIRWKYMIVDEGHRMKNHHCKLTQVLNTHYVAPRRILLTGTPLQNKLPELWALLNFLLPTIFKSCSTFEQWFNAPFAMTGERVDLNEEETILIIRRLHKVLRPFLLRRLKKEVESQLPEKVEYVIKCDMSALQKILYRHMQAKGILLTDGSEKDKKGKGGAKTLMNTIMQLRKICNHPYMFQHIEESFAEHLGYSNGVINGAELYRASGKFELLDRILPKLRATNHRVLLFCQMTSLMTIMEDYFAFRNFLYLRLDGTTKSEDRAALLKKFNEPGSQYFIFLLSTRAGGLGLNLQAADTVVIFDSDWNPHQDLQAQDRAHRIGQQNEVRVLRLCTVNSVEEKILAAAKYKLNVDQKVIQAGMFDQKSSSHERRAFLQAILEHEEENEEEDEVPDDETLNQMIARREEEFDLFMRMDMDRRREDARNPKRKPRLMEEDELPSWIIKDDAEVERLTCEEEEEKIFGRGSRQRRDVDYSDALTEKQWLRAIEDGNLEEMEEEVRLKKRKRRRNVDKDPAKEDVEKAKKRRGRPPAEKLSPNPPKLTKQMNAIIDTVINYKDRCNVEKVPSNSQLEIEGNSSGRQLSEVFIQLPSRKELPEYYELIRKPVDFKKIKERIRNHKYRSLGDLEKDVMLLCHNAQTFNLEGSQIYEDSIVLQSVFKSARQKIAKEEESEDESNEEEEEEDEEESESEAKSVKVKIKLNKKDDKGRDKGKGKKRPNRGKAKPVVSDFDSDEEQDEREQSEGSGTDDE

`Cc1ncsc1-c1ccc([C@H](C)NC(=O)[C@@H]2C[C@@H](O)CN2C(=O)[C@H](c2cc(OCCN3CCC(O[C@H]4C[C@H](Oc5cc(N6C7CCC6CN(c6cc(-c8ccccc8O)nnc6N)C7)ccn5)C4)CC3)no2)C(C)C)c(F)c1` [compound 239, (2S,4R)-1-((2S)-2-(3-(2-(4-((1r,3S)-3-((4-(3-(3-amino-6-(2-hydroxyphenyl)pyridazin-4-yl)-3,8-diazabicyclo[3.2.1]octan-8-yl)pyridin-2-yl)oxy)cyclobutoxy)piperidin-1-yl)ethoxy)isoxazol-5-yl)-3-methylbutanoyl)-N-((S)-1-(2-fluoro-4-(4-methylthiazol-5-yl)phenyl)ethyl)-4-hydroxypyrrolidine-2-carboxamide]: where the note is “SW1573 cells, read-out: DC50”, the half-maximal degradation concentration (DC50) was more than 30 nM. In addition, under setting [1], the greatest degradation seen (Dmax) is more than 75%.
As to `Cc1ncsc1-c1ccc([C@@H](NC(=O)[C@@H]2C[C@@H](O)CN2C(=O)[C@H](c2cc(OCCN3CCN(CCOc4cc(N5C6CCC5CN(c5cc(-c7ccccc7O)nnc5N)C6)ccn4)CC3)no2)C(C)C)C(=O)N(C)C2CCC2)cc1` [compound 245, (2S,4R)-1-((2S)-2-(3-(2-(4-(2-((4-(3-(3-amino-6-(2-hydroxyphenyl)pyridazin-4-yl)-3,8-diazabicyclo[3.2.1]octan-8-yl)pyridin-2-yl)oxy)ethyl)piperazin-1-yl)ethoxy)isoxazol-5-yl)-3-methylbutanoyl)-N-((R)-2-(cyclobutyl(methyl)amino)-1-(4-(4-methylthiazol-5-yl)phenyl)-2-oxoethyl)-4-hydroxypyrrolidine-2-carboxamide], under “SW1573 cells, read-out: DC50”, the DC50 lay within 2.5 to 10 nM. For the same compound, the greatest degradation seen (Dmax) under setting [1] is more than 75%.
As for `Cc1nccn1-c1ccc([C@H](C)NC(=O)[C@@H]2C[C@@H](O)CN2C(=O)[C@@H](c2cc(OCC#Cc3ccc(O[C@H]4C[C@H](Oc5cc(N6C7CCC6CN(c6cc(-c8ccccc8O)nnc6N)C7)ccn5)C4)cn3)no2)C(C)C)cc1` [compound 234, (2S,4R)-1-((2R)-2-(3-((3-(5-((1r,3R)-3-((4-(3-(3-amino-6-(2-hydroxyphenyl)pyridazin-4-yl)-3,8-diazabicyclo[3.2.1]octan-8-yl)pyridin-2-yl)oxy)cyclobutoxy)pyridin-2-yl)prop-2-yn-1-yl)oxy)isoxazol-5-yl)-3-methylbutanoyl)-4-hydroxy-N-((S)-1-(4-(2-methyl-1H-imidazol-1-yl)phenyl)ethyl)pyrrolidine-2-carboxamide], for the setting “SW1573 cells, read-out: DC50”, the DC50 is less than 2.5 nM. The greatest degradation seen (Dmax) under setting [1] was more than 75%.
The matching figures for `Cc1nccn1-c1ccc([C@H](C)NC(=O)[C@@H]2C[C@@H](O)CN2C(=O)[C@H](c2cc(OCC#Cc3ccc(O[C@H]4C[C@H](Oc5cc(N6C7CCC6CN(c6cc(-c8ccccc8O)nnc6N)C7)ccn5)C4)cn3)no2)C(C)C)cc1` [compound 233, (2S,4R)-1-((2S)-2-(3-((3-(5-((1r,3S)-3-((4-(3-(3-amino-6-(2-hydroxyphenyl)pyridazin-4-yl)-3,8-diazabicyclo[3.2.1]octan-8-yl)pyridin-2-yl)oxy)cyclobutoxy)pyridin-2-yl)prop-2-yn-1-yl)oxy)isoxazol-5-yl)-3-methylbutanoyl)-4-hydroxy-N-((S)-1-(4-(2-methyl-1H-imidazol-1-yl)phenyl)ethyl)pyrrolidine-2-carboxamide]: 10 to 30 nM and more than 75%.
Turning to `Cc1ncsc1-c1ccc([C@H](C)NC(=O)[C@@H]2C[C@@H](O)CN2C(=O)[C@H](c2cc(N3CCC4(CCN(CC5CCN(C[C@H]6C[C@H](Oc7cc(N8C9CCC8CN(c8cc(-c%10ccccc%10O)nnc8N)C9)ccn7)C6)CC5)CC4)CC3)no2)C(C)C)cc1` [compound 688, (2S,4R)-1-((2S)-2-(3-(9-((1-(((1r,3r)-3-((4-(3-(3-amino-6-(2-hydroxyphenyl)pyridazin-4-yl)-3,8-diazabicyclo[3.2.1]octan-8-yl)pyridin-2-yl)oxy)cyclobutyl)methyl)piperidin-4-yl)methyl)-3,9-diazaspiro[5.5]undecan-3-yl)isoxazol-5-yl)-3-methylbutanoyl)-4-hydroxy-N-((S)-1-(4-(4-methylthiazol-5-yl)phenyl)ethyl)pyrrolidine-2-carboxamide], the DC50 (SW1573 cells, read-out: DC50) is more than 30 nM.
`Cc1ncsc1-c1ccc([C@H](C)NC(=O)[C@@H]2C[C@@H](O)CN2C(=O)[C@@H](c2cc(OCCN3CCN(CCOc4cc(N5C6CCC5CN(c5cc(-c7ccccc7O)nnc5N)C6)ccn4)CC3)no2)C(C)C)cc1` [compound 47]: the 50% degradation concentration (DC50) (SW1573 cells, read-out: DC50) was less than 2.5 nM. Moreover, the Dmax under setting [2] is more than 75%.
For `Cc1nccn1-c1ccc([C@H](C)NC(=O)[C@@H]2C[C@@H](O)CN2C(=O)[C@H](c2cc(OCCN3CCC(O[C@H]4C[C@H](Oc5cc(N6C7CCC6CN(c6cc(-c8ccccc8O)nnc6N)C7)ccn5)C4)CC3)no2)C(C)C)cc1` [compound 176, (2S,4R)-1-((2S)-2-(3-(2-(4-((1r,3S)-3-((4-(3-(3-amino-6-(2-hydroxyphenyl)pyridazin-4-yl)-3,8-diazabicyclo[3.2.1]octan-8-yl)pyridin-2-yl)oxy)cyclobutoxy)piperidin-1-yl)ethoxy)isoxazol-5-yl)-3-methylbutanoyl)-4-hydroxy-N-((S)-1-(4-(2-methyl-1H-imidazol-1-yl)phenyl)ethyl)pyrrolidine-2-carboxamide], the 50% degradation concentration (DC50) (SW1573 cells, read-out: DC50) is more than 30 nM. Under setting [1], the Dmax is less than 50%.
The matching figures for `Cc1ncsc1-c1ccc([C@@H](COCC(C)C)NC(=O)[C@@H]2C[C@@H](O)CN2C(=O)[C@@H](c2cc(OCCN3CCN(CCOc4cc(N5C6CCC5CN(c5cc(-c7ccccc7O)nnc5N)C6)ccn4)CC3)no2)C(C)C)cc1` [compound 298, (2S,4R)-1-((2R)-2-(3-(2-(4-(2-((4-(3-(3-amino-6-(2-hydroxyphenyl)pyridazin-4-yl)-3,8-diazabicyclo[3.2.1]octan-8-yl)pyridin-2-yl)oxy)ethyl)piperazin-1-yl)ethoxy)isoxazol-5-yl)-3-methylbutanoyl)-4-hydroxy-N-((S)-2-isobutoxy-1-(4-(4-methylthiazol-5-yl)phenyl)ethyl)pyrrolidine-2-carboxamide]: less than 2.5 nM and more than 75%.
In the case of `Cc1ncsc1-c1ccc([C@H](C)NC(=O)[C@@H]2C[C@@H](O)CN2C(=O)[C@@H](c2cc(CCCN3CCN(CCOc4cc(N5C6CCC5CN(c5cc(-c7ccccc7O)nnc5N)C6)ccn4)CC3)no2)C(C)C)cc1` [compound 134, (2S,4R)-1-((2R)-2-(3-(3-(4-(2-((4-(3-(3-amino-6-(2-hydroxyphenyl)pyridazin-4-yl)-3,8-diazabicyclo[3.2.1]octan-8-yl)pyridin-2-yl)oxy)ethyl)piperazin-1-yl)propyl)isoxazol-5-yl)-3-methylbutanoyl)-4-hydroxy-N-((S)-1-(4-(4-methylthiazol-5-yl)phenyl)ethyl)pyrrolidine-2-carboxamide], the 50% degradation concentration (DC50) (SW1573 cells, read-out: DC50) was less than 2.5 nM. The Dmax under setting [2] was more than 75%.
For the compound `Cc1ncsc1-c1ccc(CNC(=O)[C@@H]2C[C@@H](O)CN2C(=O)[C@@H](NC(=O)COCCOCCOCCOCCOc2cc(N3C4CCC3CN(c3cc(-c5ccccc5O)nnc3N)C4)ccn2)C(C)(C)C)cc1` [compound 7, (2S,4R)-1-((2S)-17-((4-(3-(3-amino-6-(2-hydroxyphenyl)pyridazin-4-yl)-3,8-diazabicyclo[3.2.1]octan-8-yl)pyridin-2-yl)oxy)-2-(tert-butyl)-4-oxo-6,9,12,15-tetraoxa-3-azaheptadecanoyl)-4-hydroxy-N-(4-(4-methylthiazol-5-yl)benzyl)pyrrolidine-2-carboxamide], the DC50 (SW1573 cells, read-out: DC50) was in the range of 2.5 to 10 nM. The Dmax under setting [2] is more than 75%.
For `Cc1nccn1-c1ccc([C@H](C)NC(=O)[C@@H]2C[C@@H](O)CN2C(=O)[C@@H](c2cc(N3CCC(O[C@H]4C[C@H](Oc5cc(N6C7CCC6CN(c6cc(-c8ccccc8O)nnc6N)C7)ccn5)C4)CC3)no2)C(C)C)cc1` [compound 601, (2S,4R)-1-((2R)-2-(3-(4-((1r,3R)-3-((4-(3-(3-amino-6-(2-hydroxyphenyl)pyridazin-4-yl)-3,8-diazabicyclo[3.2.1]octan-8-yl)pyridin-2-yl)oxy)cyclobutoxy)piperidin-1-yl)isoxazol-5-yl)-3-methylbutanoyl)-4-hydroxy-N-((S)-1-(4-(2-methyl-1H-imidazol-1-yl)phenyl)ethyl)pyrrolidine-2-carboxamide], for the setting “SW1573 cells, Table 2D, read-out: **Dmax (%) (% degraded)”, the Dmax is more than 75%. In addition, the half-maximal degradation concentration (DC50) (SW1573 cells, Table 2D, read-out: *DC50) was less than 2.5 nM.
With `Cc1cc([C@@H](C(=O)N2C[C@H](O)C[C@H]2C(=O)N[C@H](COCCCCCc2cc(-c3ccccc3O)nnc2N)c2ccc(-c3scnc3C)cc2)C(C)C)on1` [compound 527, (2S,4R)-N-((S)-2-((5-(3-amino-6-(2-hydroxyphenyl)pyridazin-4-yl)pentyl)oxy)-1-(4-(4-methylthiazol-5-yl)phenyl)ethyl)-4-hydroxy-1-((S)-3-methyl-2-(3-methylisoxazol-5-yl)butanoyl)pyrrolidine-2-carboxamide], the DC50 (read-out: BRM DC50) is more than 30 nM.
Take `Cc1ncsc1-c1ccc(CNC(=O)[C@@H]2C[C@@H](O)CN2C(=O)[C@H](c2cc(OCCOCCOCCOCCOCCn3cc(-c4cc(-c5ccccc5O)nnc4N)cn3)no2)C(C)C)cc1` [compound 18, (2S,4R)-1-[(2S)-2-[3-[(14-[4-[3-amino-6-(2-hydroxyphenyl)pyridazin-4-yl]-1H-pyrazol-1-yl]-3,6,9,12-tetraoxatetradecan-1-yl)oxy]-1,2-oxazol-5-yl]-3-methylbutanoyl]-4-hydroxy-N-[[4-(4-methyl-1,3-thiazol-5-yl)phenyl]methyl]pyrrolidine-2-carboxamide]: for the setting “SW1573 cells, read-out: DC50”, the half-maximal degradation concentration (DC50) is more than 30 nM. In addition, the greatest degradation seen (Dmax) under setting [2] is 50 to 75%.
